ChEMBL document CHEMBL1141542, “Synthesis and evaluation of 3- and 7-substituted geranylgeranyl pyrophosphate analogs” (Bioorg Med Chem Lett, 2008)

Columns and labels:
[1] = Activity of GGTase 1
[2] = Inhibition of FTase
[3] = Inhibition of GGTase 1
[4] = Activity of FTase

Compound | Km [1] [µM] | IC50 [2] [nM] | IC50 [3] [nM] | Km [4] [µM]
C=CC/C(=C\CC/C(C)=C/COP(=O)(O)OP(=O)(O)O)CC/C=C(\C)CCC=C(C)C | 0.027 | > 5000 | – | –
C=C/C(=C\CC/C(C)=C/COP(=O)(O)OP(=O)(O)O)CC/C=C(\C)CCC=C(C)C | – | > 5000 | 1000 | –
C=C/C(=C\COP(=O)(O)OP(=O)(O)O)CC/C=C(\C)CCC=C(C)C | – | – | – | 0.156

More lines, in order of falling IC50 [2], values ahead:

Km [1] [µM] | IC50 [2] [nM] | IC50 [3] [nM] | Km [4] [µM] | Compound
1.75 | 715 | – | – | C=C/C(=C\COP(=O)(O)OP(=O)(O)O)CC/C=C(\C)CC/C=C(\C)CCC=C(C)C
– | 453 | 846 | – | C=CC/C(=C\COP(=O)(O)OP(=O)(O)O)CC/C=C(\C)CC/C=C(\C)CCC=C(C)C
– | 189 | – | – | C=CC/C(=C\COP(=O)(O)OP(=O)(O)O)CC/C=C(\C)CCC=C(C)C
